{
  "source": "paper PMC9130233",
  "about": "“An inhibitor of RORγ for chronic pulmonary obstructive disease treatment” (Scientific Reports, 2022)",
  "key": {"[1]": {"tested_on": "IL-17A release in human PBMC", "test": "IL-17A release, human PBMC under Th17 polarization conditions", "format": "cell-based", "conditions": "human PBMC under Th17 polarization condition, n = 2; read-out: hIL-17 (IL-17A) IC50", "description": "An increase in the levels of Th17 dependent cytokine in the peripheral blood of COPD patients as compared to the Th1 and Th2 dependent cytokines has been well documented in a subset of COPD patients. A comparative study was performed under TCR activating conditions to evaluate the potencies of PCCR-1 for inhibition across Th1, Th2 and Th17 dependent cytokines using hPBMCs.\nHuman whole blood from healthy subjects were procured from Clinical Research Unit, Sanpada. Clinical Research Center Glenmark (Plot No. D, 508, Turbhe, TTC Industrial Area, MIDC, Sanpada, Navi Mumbai, Maharashtra 400705, India). PBMCs were isolated using heparinized blood with Ficoll Histopaque. Briefly, the cells were seeded in 96-well plate pre-coated with human anti-CD3 mAb (10 µg/mL), post 30 min of compound treatment cells were stimulated with human anti-CD28 mAb (2 µg/mL). After 72 h of culture, the supernatant was collected for Th1/Th2 cytokines; IFN-γ, IL-2, IL-4 and IL-10 and measured by ELISA. For Th17 polarization assay, the following cytokine cocktail was used: IL-1β (10 ng/ml), IL-23(10 ng/ml), IL-6 (50 ng/ml), TGF-β1 (3 ng/ml), IL-2 (20U/ml) and supernatants were used for measuring IL-17 and IL-22 by ELISA."}, "[2]": {"tested_on": "IL-17 from mouse BAL cells", "test": "Ex vivo IL-17 release, cultured BAL cells from cigarette smoke exposed mice", "format": "cell-based", "conditions": "BAL cells from CS exposed mice", "description": "The effect of PCCR-1 was evaluated ex vivo using BALf cells from an acute cigarette smoke induced animal model. Animals were exposed to cigarette smoke for 7 days and BALf cells were collected and treated with different doses of PCCR-1 under various stimulatory conditions. […] Stimulation by LPS may represent the inflammatory state during a COPD exacerbation, supporting a potential benefit of PCCR-1 in this disease state.\nC57BL/6 mice were exposed to as per above mentioned protocol. On 7th day, animals were sacrificed and a tracheal cannula was inserted. Three times via the trachea, 1 mL of plain RPMI medium was instilled and recovered by gentle manual aspiration. The recovered BALf was centrifuged, the cell pellet washed twice and finally re-suspended in 5% FBS- RPMI. Isolated BAL cells were pre-incubated with different concentration of PCCR-1 for 60 min, followed by stimulating with 1 µg/ml soluble mouse anti-CD3 and 3 µg/ml mouse anti-CD28 mAbs and/or 100 ng/ml of LPS and incubated for 24-48 h at 37 °C. The supernatant was used for estimating IL-17 by ELISA."}, "FXR": {"tested_on": "T1, FXR", "T1 construct": "purchased Invitrogen", "test": "TR-FRET selectivity binding assay, FXR", "description": "Based on the homology of the ligand binding domains, 3 different isoforms of ROR (hRORα, hRORβ and hRORγ) are reported. Small variations in the LBD regions possibly lead to differences in competitive binding between the nuclear receptors of the ROR isoforms (Fig. 1b). Similar to the assessment of RORγ binding assay, TR-FRET binding assays were also used to assess the affinity of PCCR-1 for other ROR isoforms. […] This was reconfirmed in cellular functional assays for the selected isoforms and nuclear receptors using Gal4 DBD with luciferase reporter system from Indigo (PA, USA). […] In addition, both cellular agonist and antagonist effects as well as for enzyme activity were evaluated with a known reference compound for each target, using a radiolabeled method (Eurofins Cerep, France, Table 1).\nFor selectivity, the ROR isoforms RORα, FXR, LXRα, LXRβ, RXR, RARα were incubated with compound for 60 min at 22 °C followed by detection mix containing respective agonist (All trans retinoic acid for RARα, T0901317 for LXRα, LXRβ, 9-cis Retinoic acid for RXR, GW-4064 for FXR) and coactivator peptide (FD22 for RORα, PGC1α for RXR, RARα, TRAP220 for LXRα, LXRβ, SRC2-2 for FXR) and Tb-anti GST antibody prepared in assay buffer were added into a 384-well white plate. Reading taken after overnight incubation and the data analysis done as per the protocol mentioned in RORγt-LBD and co-activator ligand binding assay."}},
  "note": "Read-outs that look alike come from different tables or passages of the source.",
  "data": [
    {"smiles": "CCn1c(C(C)(C)Oc2ccc(F)cc2F)nc2cc(NC(=O)Cc3ccc(S(=O)(=O)CC)cc3)ccc21", "note": "[PCCR-1]", "values": [
      {"measurement": "IC50", "setting": "[1]", "value": 66.5, "unit": "nM"},
      {"measurement": "IC50", "setting": "[2]; LPS induced, read-out: IL-17 IC50, Mouse BAL cells: LPS", "value": 802, "unit": "nM"},
      {"measurement": "IC50", "setting": "[2]; anti-CD3 + anti-CD28 induced, read-out: IL-17 IC50, Mouse BAL cells: CD3+CD28", "value": 903, "unit": "nM"},
      {"measurement": "IC50", "setting": "[2]; basal, read-out: IL-17 IC50, Mouse BAL cells: Basal", "value": 873, "unit": "nM"},
      {"measurement": "% Inhibition FXR", "setting": "FXR; 1 µM", "value": 21.45, "unit": "%"},
      {"measurement": "% Inhibition FXR", "setting": "FXR; 10 µM", "value": 19.81, "unit": "%"},
      {"measurement": "Fold over hRORγ, FXR", "setting": "FXR; vs RORg IC50 31.87 nM", "value": "> 313.7", "unit": "fold"}
    ]}
  ]
}
